Source: patent US20230285498A1, “TREATMENTS FOR CANCERS HAVING KRAS MUTATIONS” (City of Hope, priority 2020, published 2023)

Columns and labels:
[1] = test system: WNT2, CFTR and CCL2 expression in H23 cells; test: qPCR validation of RNAseq; assay type: cell-based
Experimental: The drug treatment what initiated at dose of 1 μM which was finally raised up to 7.5 μM. […] Further, using qPCR assay we validated the RNAseq data and observed more than 40 fold induction in expression of various genes such as WNT2, CFTR and CCl2. (FIGS. 17D-17F). Further the analysis also identified activation of MYC and E2F Target Hall Mark Pathways which may help H23 cells in withstanding drug toxicity (data not shown).
Quantitative real-time PCR and RNAseq: Quantitative real-time PCR (qPCR) reactions were performed using TaqMan Universal PCR Master Mix (Thermo Fisher Scientific, Waltham, Mass.) and analyzed by the Quant Studio? Real-time PCR system (Life Technologies, Grand Island, N.Y.). Total RNA isolation and on-column DNase digestion from cells were performed basing on the manufacturer's protocol RNeasy Plus Mini Kit (Qiagen Cat #: 74134). 1 ug of RNA was used to synthesize the cDNA according to the one step cDNA synthesis kit from QuantaBio (Cat #: 101414-106). TaqMan probes were purchased from ThermoFisher (Waltham, Mass.). The mRNA expression was analyzed using multiplex PCR for the gene of interest and GAPDH as a reference using two independent detection dyes FAM probes and VIC probes respectively. Relative mRNA expression was normalized to GAPDH signals and calculated using the delta Ct method.

[2] = test system: H358 spheroids; test: 3D spheroid assay; assay type: cell-based
Experimental: (§1) The activation of apoptosis is marked with the increase in green fluorescence intensity.
(§2) To determine the sensitivities of the same cells in 3D, mKate expressing cells were used to generate spheroids. Spheroids were monitored in real time using the IncuCyte live cell imaging system (FIG. 1B).
(§3) Cell proliferation and apoptosis assay: Cell proliferation assays were performed using cell lines stably transfected with NucLight Red Lentivirus (Essen BioScience) to accurately visualize and count the nucleus of a single cell. Cells were seeded on a 96-well plate and allowed to adhere for 24 h. Test compounds were added at indicated concentrations. Caspase-3/7 Green Apoptosis Reagent (Essen BioScience) was also added as a green fluorescent indicator of caspase3/7-mediated apoptotic activity. To monitor cell proliferation and apoptosis over time, the plate was placed in the IncuCyte S3 Live Cell Imaging System (Essen BioScience) and images were acquired every 2 hours. Data analysis was generated by the IncuCyte software using a red fluorescence mask to accurately count each cell nucleus and a green fluorescence mask to measure apoptosis over time. 3D spheroid assay 3D spheroid experiments were performed using cell lines stably transfected with NucLight Red Lentivirus (Essen BioScience) to visualize red fluorescence as an indicator of cell viability. Cells were seeded on a 96-well ultra-low attachment plate and allowed to form spheroids overnight. Drug treatment was added as indicated along with Cytotox Green Reagent (Essen BioScience), used as a green fluorescence indicator of cell death due to loss of cell membrane integrity. To monitor cell proliferation and apoptosis over time, the plate was placed in the IncuCyte S3 Live Cell Imaging System (Essen BioScience) and images were acquired every 2 hours. Data analysis was generated by the IncuCyte software using a red fluorescence mask to accurately measure intensity and area of red fluorescence, indicating spheroid viability and a green fluorescence mask, indicating cell death. Cell cycle analysis.

[3] = test system: SW1573 spheroids; test: 3D spheroid assay; assay type: cell-based
Experimental: as §1, §2, §3

[4] = test system: H23 spheroids; test: 3D spheroid assay; assay type: cell-based
Experimental: as §1, §2, §3

[5] = test system: H23 sotorasib (20 μM)-resistant cells; test: Cell proliferation, isogenic sotorasib resistant line; assay type: cell-based; details: ITGB4/β-catenin double knockdown together with sotorasib; 96 hours
Source text: Next, it was sought to determine cell proliferation changes with the combination treatment.

[6] = test system: SW1573 NSCLC cells; test: Mouse SW1573 xenograft; assay type: in vivo, Athymic nude nu/nu mice; details: sotorasib 10 mg/kg, adagrasib 10 mg/kg, carfilzomib 2 mg/kg; oral gavage twice a week; day 56
Experimental: Mouse xenograft studies. Athymic nude nu/nu mice were obtained from Charles River, Wilmington, Mass., and were acclimated for a week before beginning the experiment. All animal experiments were carried out in accordance with a protocol approved by the Institutional Animal Care and Use Committee (IACUC #16004). […] All 40 animals were injected with 1×10^6 SW1573 cells suspensions in 100 μl of PBS, subcutaneously into one flank of each mouse. At the same time, animals were randomized into treatment groups. Treatment was started 12 days after the SW1573 NSCLC cells implantation to see palpable tumor growth. Treatments were given to mice via oral gavage twice a week for 8 weeks. Animals were examined daily for signs of tumor growth. Tumors were measured in two dimensions using calipers and body weights were recorded. Photographs of animals were taken at day 1, day 7, day 14, day 21, day 28, day 35, day 42, day 49, and day 56 after treatment. Photographs of tumors were also taken at day 56 after treatment. At the end of the study, the mice were euthanized by CO2 asphyxiation followed by cervical dislocation. The tumor weights were compared between groups using an unpaired Student's t-test. A portion of the tumor was fixed in 10% buffered formaldehyde solution and paraffin-embedded for immuno-staining or was snap-frozen in liquid nitrogen for further molecular analysis such as western blotting.

With `C=CC(=O)N1CCN(c2nc(=O)n(-c3c(C)ccnc3C(C)C)c3nc(-c4c(O)cccc4F)c(F)cc23)[C@@H](C)C1` [sotorasib] the “induction in expression of WNT2, CFTR and CCL2 (qPCR)” value [1] was “more than 40 fold”, the “drop in spheroid red intensity” value ([2]; H358, 0.3 μM) was “about 80%” and the inhibition at 0.3 µM ([2]; Homo sapiens, NCI-H358, H358, 0.3 μM, read-out: inhibition of spheroid area) was 90%. For the same compound, the IC50 ([2]; Homo sapiens, NCI-H358, H358 spheroid, read-out: IC50 in cell line derived spheroid) was 0.0022 µM, the inhibition at 0.3 µM ([3]; Homo sapiens, SW1573, 0.3 μM, read-out: inhibition of spheroid area) was 30% and the inhibition at 10 µM ([3]; Homo sapiens, SW1573, 10 μM, read-out: inhibition of spheroid area / reduction in spheroid growth) was roughly 40%. The IC50 ([3]; Homo sapiens, SW1573 spheroid, read-out: IC50 in cell line derived spheroid) was 12.6 µM, the “spheroid red intensity dropped to” value ([3]; SW1573, 10 μM) was 70% and the “drop in spheroid red intensity” value ([4]; H23, 0.3 μM) was “about 40%”. For the same compound, the inhibition at 0.3 µM ([4]; H23, 0.3 μM, read-out: inhibition of spheroid area) was 70%, the “spheroid red intensity dropped to” value ([4]; H23, 10 μM) was 80% and the IC50 ([4]; H23 spheroid, read-out: IC50 in cell line derived spheroid) was 12.3 µM. The “sensitization of isogenic resistant line” value [5] was 70% and the “reduction in tumor area” value [6] was “about 52%”.
